Like-named read-outs stand apart in the source and are kept apart here.
Tests used:
[1] = molecular target: D. immitis Slo-1 (Dirofilaria immitis, UniProt I0DFK5); assay: D. immitis Slo-1 - action at a recombinant D. immitis cell line (membrane potential, FLIPR); type: cell-based
[2] = system: A. viteae; settings: jirds (Meriones unguiculatus), at ≤25.0 mg/kg per oral, treated once, necropsy 12 weeks after infection
Description: Jirds (Meriones unguiculatus), experimentally infected with infective A. viteae larvae via subcutaneous injection were subsequently treated once with the formulated test compound by oral gavage or intraperitoneally. At necropsy 12 weeks after infection, efficacy was expressed as a % reduction in worm numbers in comparison with the placebo treated group, using the Abbot's formula.

[3] = system: H. contortus and/or T. colubriformis; assay: In vivo assay 3: gastro intestinal nematodes H. contortus and T. colubriformis in jirds; settings: jirds (Meriones unguiculatus), at ≤1.0 mg/kg intraperitoneal, treated once on Day 6 after infection
Protocol: In Vivo Assay 3: Gastro Intestinal Nematodes of H. contortus (Haemonchus contortus) and T. colubriformis (Trichostrongylus colubriformis)
Jirds (Meriones unguiculatus), immunosuppressed by administration of rodent feed containing hydrocortisone 21-acetate, were experimentally infected with third instar larvae each of T. colubriformis and H. contortus by oral gavage and were treated once orally or intraperitoneally with the formulated test compound on Day 6 after infection. Three days after treatment, jirds were euthanized and dissected to recover H. contortus from stomach and T. colubriformis from the small intestine. Efficacy is expressed as a % reduction in worm numbers in comparison with a placebo treated group, using the Abbot's formula.

D. immitis Slo-1, sequence (I0DFK5 1-1119): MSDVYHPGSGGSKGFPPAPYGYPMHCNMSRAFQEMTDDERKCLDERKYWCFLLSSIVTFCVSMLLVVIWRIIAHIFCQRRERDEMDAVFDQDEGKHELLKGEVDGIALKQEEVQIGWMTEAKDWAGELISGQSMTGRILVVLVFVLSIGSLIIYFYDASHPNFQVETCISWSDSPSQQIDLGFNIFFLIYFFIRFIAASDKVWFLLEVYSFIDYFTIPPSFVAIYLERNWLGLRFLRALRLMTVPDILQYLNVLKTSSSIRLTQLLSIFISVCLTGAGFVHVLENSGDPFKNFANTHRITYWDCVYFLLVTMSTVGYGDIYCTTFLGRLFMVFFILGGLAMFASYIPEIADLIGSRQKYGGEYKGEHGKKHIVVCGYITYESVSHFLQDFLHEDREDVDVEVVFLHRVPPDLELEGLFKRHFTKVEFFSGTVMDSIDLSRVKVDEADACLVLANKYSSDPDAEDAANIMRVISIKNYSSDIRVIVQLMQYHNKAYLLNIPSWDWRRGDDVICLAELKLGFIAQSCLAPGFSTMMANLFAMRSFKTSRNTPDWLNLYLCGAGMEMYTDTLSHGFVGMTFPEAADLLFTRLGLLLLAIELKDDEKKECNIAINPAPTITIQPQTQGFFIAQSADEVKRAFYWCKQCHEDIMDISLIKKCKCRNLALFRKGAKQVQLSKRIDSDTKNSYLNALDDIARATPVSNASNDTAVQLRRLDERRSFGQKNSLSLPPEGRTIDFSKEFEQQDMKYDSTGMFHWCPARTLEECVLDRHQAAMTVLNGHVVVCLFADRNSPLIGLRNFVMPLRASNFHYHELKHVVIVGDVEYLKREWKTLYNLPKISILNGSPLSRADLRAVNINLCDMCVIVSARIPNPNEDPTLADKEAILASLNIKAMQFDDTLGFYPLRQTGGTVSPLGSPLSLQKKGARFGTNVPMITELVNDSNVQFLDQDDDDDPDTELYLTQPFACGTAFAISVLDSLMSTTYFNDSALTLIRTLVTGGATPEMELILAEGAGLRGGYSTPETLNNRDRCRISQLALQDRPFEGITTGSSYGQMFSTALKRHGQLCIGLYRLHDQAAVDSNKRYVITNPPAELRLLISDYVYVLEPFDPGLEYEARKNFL

O=C1CC(c2c(C(=O)N[C@H]3CCOc4ccccc43)cnc3c(-c4cc(F)cc(F)c4F)c(F)ccc23)C1 [Example 1, N-[(4S)-3,4-dihydro-2H-chromen-4-yl]-7-fluoro-4-(3-oxocyclobutyl)-8-(2,3,5-trifluorophenyl) quinoline-3-carboxamide]
EC50 [1]: 0.001 to 0.01 µM
activity (% reduction in worm numbers) [2]: 100%
activity (% reduction in worm numbers) [3]: 100%

O=C(N[C@H]1CCOc2ccccc21)c1cnc2c(-c3cc(F)cc(F)c3F)c(F)ccc2c1[C@H]1C[C@H](F)C1 [Example 15, N—((S)-chroman-4-yl)-7-fluoro-4-((1R,3S)-3-fluorocyclobutyl)-8-(2,3,5-trifluorophenyl) quinoline-3-carboxamide]
EC50 [1]: 0.001 to 0.01 µM
activity (% reduction in worm numbers) [3]: 100%

O=C(N[C@H]1CCOc2ccccc21)c1cnc2c(-c3cc(F)cc(F)c3F)c(F)ccc2c1C1CS(=O)(=O)C1 [Example 3, N-[(4S)-3,4-dihydro-2H-chromen-4-yl]-4-(1,1-dioxidothietan-3-yl)-7-fluoro-8-(2,3,5-trifluorophenyl) quinoline-3-carboxamide]
EC50 [1]: 0.01 to 0.1 µM

O=C(N[C@H]1CCOc2ccccc21)c1cnc2c(-c3cc(F)cc(F)c3F)c(F)ccc2c1C1C[S+]([O-])C1 (single isomer, unassigned) [Example 5]
activity (% reduction in worm numbers) [3]: 100%

O=C(N[C@H]1CCOc2ccccc21)c1cnc2c(-c3cc(F)cc(F)c3F)c(F)ccc2c1C1C[S+]([O-])C1 (single isomer, unassigned) [Example 6]
EC50 ([1]; read-out: pE50, stable CHO cell line expressing D. immitis Slo-1, voltage sensitive dye, upper limit in μM): 0.1 to 1 µM

O=C(N[C@H]1CCOc2ccccc21)c1cnc2c(-c3cc(Cl)cc(Cl)c3)c(F)ccc2c1N1CCOC2CC21 (stereo partly drawn) [Example 13, 4-(2-oxa-5-azabicyclo[4.1.0]heptan-5-yl)-N—((S)-chroman-4-yl)-8-(3,5-dichlorophenyl)-7-fluoroquinoline-3-carboxamide]
EC50 [1]: 0.001 to 0.01 µM

O=C1CN(c2c(C(=O)N[C@H]3CCOc4ccccc43)cnc3c(-c4cc(F)cc(F)c4F)c(F)ccc23)CCN1 [Example 16, N—((S)-chroman-4-yl)-7-fluoro-4-(3-oxopiperazin-1-yl)-8-(2,3,5-trifluorophenyl) quinoline-3-carboxamide]
activity (% reduction in worm numbers) [3]: 100%

N=S1(=O)CC(c2c(C(=O)N[C@H]3CCOc4ccccc43)cnc3c(-c4cc(F)cc(F)c4F)c(F)ccc23)C1 (stereo partly drawn) [Example 10, N-[(4S)-3,4-dihydro-2H-chromen-4-yl]-7-fluoro-4-(1-imino-1-oxido-1lambda^4-thietan-3-yl)-8-(2,3,5-trifluorophenyl) quinoline-3-carboxamide]
EC50 [1]: 0.001 to 0.01 µM
activity (% reduction in worm numbers) [3]: 100%

O=C(N[C@H]1CCOc2ccccc21)c1cnc2c(-c3cc(F)cc(F)c3F)c(F)ccc2c1[C@H]1CCOC1 [Example 9, N-[(4S)-3,4-dihydro-2H-1-benzopyran-4-yl]-7-fluoro-4-(oxolan-(3R)-yl)-8-(2,3,5-trifluorophenyl) quinoline-3-carboxamide]
EC50 [1]: 0.001 to 0.01 µM
activity (% reduction in worm numbers) [3]: 100%

O=C(N[C@H]1CCOc2ccccc21)c1cnc2c(-c3cc(F)cc(F)c3F)c(F)ccc2c1[C@@H]1CCOC1 [Example 8, N-[(4S)-3,4-dihydro-2H-1-benzopyran-4-yl]-7-fluoro-4-(oxolan-(3S)-yl)-8-(2,3,5-trifluorophenyl) quinoline-3-carboxamide]
EC50 [1]: 0.001 to 0.01 µM
activity (% reduction in worm numbers) [3]: 100%

O=C(N[C@H]1CCOc2ccccc21)c1cnc2c(-c3cc(F)cc(F)c3F)c(F)ccc2c1C1CCOC1 (stereo partly drawn) [Example 7, N-[(4S)-3,4-dihydro-2H-1-benzopyran-4-yl]-7-fluoro-4-(oxolanyl)-8-(2,3,5-trifluorophenyl) quinoline-3-carboxamide]
EC50 [1]: 0.001 to 0.01 µM
